Experimental data as given in patent US20250034201A1, “PRODRUGS OF GANAXOLONE” (priority 2022, published 2025).
≈ marks a conversion by molar mass, not a printed value. Where two headings read alike, the source gives them in different places.

Experiments:
[1] = Measured solubility in buffer, LC-MS/MS; type: physicochemical; details: aqueous buffer, thermodynamic from solid
Protocol: […] The mixture was vortexed and a magnetic stirring bar was subsequently added to the vial. The vial was placed on a magnetic stirrer with constant stirring for 16-24 hours at room temperature. The pH of the top layer solution was measured. Subsequently, 200 μL of the top layer solution was placed in a 1.5 mL microcentrifuge tube and centrifuged at 18,000 g for 10 min at room temperature. A 10 μL aliquot of supernatant was added to 990 μL of methanol:water (1/:1, v/v) and vortexed. Then, one volume of acetonitrile containing internal standard was added to one volume of the above 100-fold diluted solution and the resulting solution was vortexed and placed in 96-well plate for LC-MS/MS analysis. […] LC-MS-MS analysis was performed utilizing multiple reaction monitoring for detection of characteristic ions for each test compound, additional related analytes and internal standard.

Dog plasma stability = type: in vitro ADME
Protocol: (§5) For each test compound, samples at a final concentration of 2 μg/mL were prepared in blank plasma of selected species. All samples were incubated at 37° C. on a 150-RPM orbital shaker, and an aliquot was removed at pre-determined time points (0, 15, 30, 60, and 120 minutes). Samples were precipitated with three volumes of acetonitrile containing propranolol as internal standard, and centrifuged for 10 min at 2000 g before LC/MS/MS analysis of the supernatant solutions.

[2] = Rat liver microsomal stability; type: in vitro ADME
Protocol: (§1) For several compounds only human liver microsomal stability was tested. […] The microsomal assays were carried out with and without the addition of NADPH at a final concentration of 1 mM. For negative control samples, NADPH reagent was not added. […] Note that compounds undergo only Phase I metabolism in liver microsomes.
(§2) CLint=the intrinsic hepatic clearance (uL/min/mg), where CLint is equal to 0.693/(t1/2×Cmp)

[3] = Pharmacokinetic study with Compound 111 (IV 5 mg/kg, PO 25 mg/kg); type: in vivo; details: analyte Compound 111, fasted male beagle dogs, mean; for AUC(0-t): read-out: Compound 111 PK AUClast; for MRT inf: read-out: Compound 111 PK MRTInf; for half-life: read-out: Compound 111 PK t1/2 (converted); for Vd: male, beagle, iv, 5 mg/kg
Protocol: […]; n=3) and oral (PO) administration (25 mg/kg; n=3) in fasted male beagle dogs.

[4] = Stability in simulated intestinal fluid (SIF); type: in vitro ADME
Protocol: (§3) The stability of exemplary compounds in simulated gastric fluid (SGF) and simulated intestinal fluid (SIF) was tested according to the following protocol.

[5] = Stability in simulated gastric fluid (SGF); type: in vitro ADME
Protocol: as §3

Mouse plasma stability = type: in vitro ADME; details: 2 μg/mL, 37° C.
Protocol: as §5

in vitro [6] = type: in vitro ADME, human
Protocol: as §1

[7] = Mouse liver microsomal stability; type: in vitro ADME
Protocol: as §1, §2
(§4) Certain compounds were also tested in mice and dog liver microsome assays according to the protocol outlined above. […].

in vitro [8] = test: in vitro
[9] = Dog liver microsomal stability; type: in vitro ADME
Protocol: as §1, §2, §4

[10] = Pharmacokinetic study with Compound 224 (IV 2 mg/kg, PO 10 mg/kg); details: male, beagle, dog, plasma, analyte Compound 224, fasted male beagle dogs, mean
Protocol: Analysis time points for the IV arm were 0.083, 0.25, 0.5, 1, 2, 4, 8, 12, 24, 36 and 48 hours post dose and analysis time points for the PO arm were 0.25, 0.5, 1, 2, 4, 8, 12, 24, 36 and 48 hours post dose.

[11] = dog, plasma, IV 5 mg/kg Compound 111
[12] = dog, plasma, oral 25 mg/kg Compound 111

Q: With CC(=O)[C@H]1CC[C@H]2[C@@H]3CC[C@H]4C[C@](C)(OC(=O)CN)CC[C@]4(C)[C@H]3CC[C@]12C [Compound 111] as the compound, how does the solubility ([1]; pH 7.4, 50 mM phosphate buffer, 16-24 hours, room temperature, read-out: Solubility pH 7.4) read?
A: 29.1 µg/mL (≈ 74.7 µM)

Q: What about the solubility ([1]; buffer, pH 2.0, room temperature, read-out: Solubility pH 2.0) of the same compound?
A: 1520 µg/mL (≈ 3900 µM)

Q: What about the “Dog plasma t90” value (Dog plasma stability; dog plasma, 2 μg/mL, 37° C.) of the same compound?
A: 243 min

Q: And the half-life (Dog plasma stability; dog plasma, 2 μg/mL, 37° C., read-out: Dog plasma Half life (t1/2))?
A: 26.8 h

Q: What about the “Comments: production of GNX (ganaxolone) in rat liver microsomes” value ([2]; rat liver microsomes) of the same compound?
A: In rat no GNX produced;

Q: What about the half-life ([2]; rat liver microsomes 0.5 mg/mL, with NADPH, compound 0.5 μM, 37° C., read-out: Rat Liver Microsomal Stability t1/2) of the same compound?
A: 5.58 h

Q: And the microsomal CLint ([2]; rat liver microsomes 0.5 mg/mL, with NADPH, compound 0.5 μM, read-out: Rat Liver Microsomal Stability CLint (uL/min/mg liver))?
A: 4.13 µL/min/mg

Q: And the “Rat Liver Microsomal Stability no NADPH, % remain 1 h” value ([2]; rat liver microsomes, no NADPH, compound 0.5 μM)?
A: 99.7%

Q: What about the “Compound 111 PK AUCInf/D” value ([3]; oral 25 mg/kg Compound 111) of the same compound?
A: 68.7 kg·ng·h/mL/mg

Q: What about the AUC(0-inf) ([3]; dog, plasma, IV 5 mg/kg Compound 111, read-out: Compound 111 PK AUCinf) of the same compound?
A: 2790 ng·h/mL

Q: What about the AUC(0-t) [3, 11] of the same compound?
A: 2740 ng·h/mL

Q: What about the C0 ([3]; dog, plasma, IV 5 mg/kg Compound 111, read-out: Compound 111 PK C0) of the same compound?
A: 1500 ng/mL

Q: And the clearance ([3]; dog, plasma, IV 5 mg/kg Compound 111, read-out: Compound 111 PK CL)?
A: 31.7 mL/min/kg

Q: What about the MRT inf [3, 11] of the same compound?
A: 3.68 h

Q: What about the half-life [3, 11] of the same compound?
A: 3.54 h

Q: What about the AUC(0-inf) ([3]; dog, plasma, oral 25 mg/kg Compound 111, read-out: Compound 111 PK AUCInf) of the same compound?
A: 1720 ng·h/mL

Q: What about the AUC(0-t) [3, 12] of the same compound?
A: 1570 ng·h/mL

Q: And the Cmax ([3]; dog, plasma, oral 25 mg/kg Compound 111, read-out: Compound 111 PK Cmax)?
A: 177 ng/mL

Q: And the MRT inf [3, 12]?
A: 10.6 h

Q: And the Tmax ([3]; dog, plasma, oral 25 mg/kg Compound 111, read-out: Compound 111 PK Tmax)?
A: 2.67 h

Q: What about the half-life [3, 12] of the same compound?
A: 7.15 h

Q: And the bioavailability ([3]; dog, plasma, oral 25 mg/kg vs IV 5 mg/kg Compound 111, read-out: Compound 111 PK F (%))?
A: 11.4%

Q: What about the Vd ([3]; dog, plasma, IV 5 mg/kg Compound 111, read-out: Compound 111 PK Vss) of the same compound?
A: 6.71 L/kg

Q: And the Vd ([3]; dog, plasma, IV 5 mg/kg Compound 111, read-out: Compound 111 PK Vz)?
A: 9.47 L/kg

Q: And the “SIF (% remain, 60 min)” value ([4]; SIF with pancreatin pH 6.8, 37° C., 60 min)?
A: 79.0%

Q: And the half-life ([4]; simulated gi fluid, SIF with pancreatin pH 6.8, 37° C., 2 μg/mL, read-out: SIF t1/2)?
A: 4.27 h

Q: And the “SGF (% remain, 60 min)” value ([5]; SGF with pepsin pH 1.2, 37° C., 60 min)?
A: 95%

Q: What about the half-life ([5]; simulated gi fluid, SGF with pepsin pH 1.2, 37° C., 2 μg/mL, read-out: SGF t1/2) of the same compound?
A: 12.4 h

Q: And the “Mouse plasma t90” value (Mouse plasma stability)?
A: 67.2 min

Q: What about the half-life (Mouse plasma stability; read-out: Mouse plasma Half life (t1/2)) of the same compound?
A: 7.43 h

Q: What about the half-life (in vitro [6]; human liver microsomes 0.5 mg/mL, with NADPH, compound 0.5 μM, 37° C., read-out: Human Liver Microsomal Stability t1/2) of the same compound?
A: 3.17 h

Q: And the microsomal CLint (in vitro [6]; human liver microsomes 0.5 mg/mL, with NADPH, compound 0.5 μM, read-out: Human Liver Microsomal Stability CLint (uL/min/mg liver) (converted))?
A: 7.28 µL/min/mg

Q: What about the “Human Liver Microsomal Stability no NADPH, % remain 1 h” value (in vitro [6]; human liver microsomes, no NADPH, compound 0.5 μM) of the same compound?
A: 82.6%

Q: What about the microsomal CLint ([7]; mouse liver microsomes 0.5 mg/mL, compound 0.5 μM, read-out: Mouse Liver Microsomal Stability CLint (uL/min/mg liver)) of the same compound?
A: 11.8 µL/min/mg

Q: What about the half-life ([7]; mouse liver microsomes 0.5 mg/mL, compound 0.5 μM, read-out: Mouse Liver Microsomal Stability t1/2) of the same compound?
A: 1.97 h

Q: And the “Mouse Liver Microsomal Stability no NADPH, % remain 1 h” value ([7]; mouse liver microsomes, no NADPH, 1 h)?
A: 92.7%

Q: And the “Human plasma t90” value (in vitro [8]; human plasma, 2 μg/mL, 37° C.)?
A: 542 min

Q: And the half-life (in vitro [8]; human, plasma)?
A: 60 h

Q: And the “Rat plasma t90” value (in vitro [8]; rat plasma, 2 μg/mL, 37° C.)?
A: 132 min

Q: And the half-life (in vitro [8]; rat, plasma)?
A: 14.6 h

Q: And the microsomal CLint ([9]; dog liver microsomes 0.5 mg/mL, compound 0.5 μM, read-out: Dog Liver Microsomal Stability CLint (uL/min/mg liver))?
A: 4.95 µL/min/mg

Q: And the half-life ([9]; dog liver microsomes 0.5 mg/mL, compound 0.5 μM, read-out: Dog Liver Microsomal Stability t1/2)?
A: 4.67 h

Q: What about the “Dog Liver Microsomal Stability no NADPH, % remain 1 h” value ([9]; dog liver microsomes, no NADPH) of the same compound?
A: 92.3%

Q: Which “Dog plasma t90” value (Dog plasma stability; dog) does the source give for CC(=O)[C@H]1CC[C@H]2[C@@H]3CC[C@H]4C[C@](C)(OC(=O)COC(=O)C(C)(C)O)CC[C@]4(C)[C@H]3CC[C@]12C [Compound 224] here?
A: 126 min

Q: What about the half-life (Dog plasma stability; dog plasma) of the same compound?
A: 14 h

Q: What about the “Comments: production of GNX (ganaxolone) in rat liver microsomes” value ([2]; rat liver microsomes) of the same compound?
A: In rat no GNX produced;

Q: What about the half-life ([2]; rat, microsomes) of the same compound?
A: 0.163 h

Q: What about the microsomal CLint ([2]; rat, microsomes) of the same compound?
A: 142 µL/min/mg

Q: What about the “Rat Liver Microsomal Stability no NADPH, % remain 1 h” value ([2]; rat, microsomes) of the same compound?
A: 1.4%

Q: What about the “SIF (% remain, 60 min)” value ([4]; simulated gi fluid, 1 h, pH 6.8) of the same compound?
A: 60%

Q: What about the half-life ([4]; simulated gi fluid, pH 6.8) of the same compound?
A: 1.63 h

Q: What about the “SGF (% remain, 60 min)” value ([5]; simulated gi fluid, 1 h, pH 1.2) of the same compound?
A: 88%

Q: And the half-life ([5]; simulated gi fluid, pH 1.2)?
A: 6.08 h

Q: What about the half-life (in vitro [6]; human, microsomes) of the same compound?
A: 0.0278 h

Q: And the microsomal CLint (in vitro [6]; human, microsomes)?
A: 828 µL/min/mg

Q: What about the “Human Liver Microsomal Stability no NADPH, % remain 1 h” value (in vitro [6]; human, microsomes) of the same compound?
A: 0.4%

Q: What about the Vd ([10]; Compound 224 PK Vss (L/kg)) of the same compound?
A: 5.92 L/kg

Q: What about the Vd ([10]; Compound 224 PK Vz (L/kg)) of the same compound?
A: 16.1 L/kg

Q: What about the “Human plasma t90” value (in vitro [8]; human) of the same compound?
A: 6.5 min

Q: And the half-life (in vitro [8]; human, plasma)?
A: 0.717 h

Q: And the “Rat plasma t90” value (in vitro [8]; rat)?
A: 2.16 min

Q: What about the “Observations: stability / GNX production in rat plasma” value (in vitro [8]; rat, plasma) of the same compound?
A: GNX produced in rat

Q: And the half-life (in vitro [8]; rat, plasma)?
A: 0.24 h

Q: And the half-life ([9]; dog, microsomes)?
A: 0.118 h

Q: What about the microsomal CLint ([9]; dog, microsomes) of the same compound?
A: 196 µL/min/mg

Q: What about the “Dog Liver Microsomal Stability no NADPH, % remain 1 h” value ([9]; dog, microsomes) of the same compound?
A: 0.6%
